Data set [1] can be described thus: Kinetics of hydrazone formation by absorption difference spectroscopy. The note with it: reaction with 3-formyltyrosine, PME buffer pH 6.9, 25° C. The text has this:
Removal and replacement of the C-terminal tyrosine of α-tubulin can be assessed by Western blot. […] The presence of a carbonyl in α-tubulin was confirmed reacting the protein with dinitrophenylhydrazine (DNPH) followed L-tyrosine or 3-formyltyrosine as described under Methods and then subjected to SDS-PAGE. Top: Western blot with tyrosinated α-tubulin antibody (Sigma-Aldrich TUB-1A2). Bottom: Coomassie stain. Lane 1: Tubulin. Lane 2: Tubulin treated with CPA. Lane 3: CPA-treated tubulin retyrosinated with tyrosine. Lane 4: CPA-treated tubulin retyrosinated with 3-formyltyrosine. The mass of protein loaded each well was 0.66 μg for the Western blot and 10 μg for the protein stain. Hydrazone Formation: Effect of the Structure of the Nucleophile. Reactions of aldehydes and ketones with hydrazines, hydroxylamines, and amines have been extensively studied (33). The rate vs pH curve is bellshaped; the maximum reaction rate is around the pKa of the hydrazine. […]
Kinetic Measurements. Kinetics of hydrazone formation were measured using absorption difference spectroscopy. […] The change in absorbance for one wavelength was selected from the spectral data, and these values were plotted as a function of time. The data were analyzed as a single pseudo-first-order reaction and were fit to the appropriate equation using SigmaPlot 10.0.

Data set [2] can be described thus: Absorption and fluorescence spectra and quantum yield. The class given is physicochemical. As to conditions: in methanol at 25° C. On the procedure: To test this hypothesis, the absorption and fluorescence spectra of coumarin hydrazine and the salicylaldehyde hydrazone of coumarin hydrazine were measured, which serves as a model compound for the protein-bound hydrazone. Hydrazone formation causes a shift in both the absorption and emission maxima of coumarin hydrazine and a significant increase in quantum yield (Table 2). Thus, as a result of the difference in the spectroscopic window and the quantum yields of coumarin hydrazine and its salicylaldehyde hydrazone, fluorescence from unreacted coumarin hydrazine can be averted.

The subject of a further data set is cells. The experiment in a line: SRB assay after 96 h treatment with amino acid. The class given is cell-based. As to conditions: for IC50: cells treated 96 h, read-out: IC 50 (toxicity). (In SRB staining, fixed cells bind dye roughly in proportion to their protein.)
Data set [3] concerns PC3 cells. In words: Effect on cell morphology and microtubule network (immunofluorescence). The class given is cell-based. The note with it: 24 hour treatment followed by treatment with a fluorophore. On the procedure:
PC3 cells were grown in F12K medium supplemented with unnatural amino acid for 24 h. Cells were washed and then treated with fluorophores for 24 h before fixing with methanol. Cells were then processed for immunofluorescence using tubulin antibody (red) and DAPI (blue).
PC3 cells were grown in F12K medium supplemented with unnatural amino acid for 24 h. Cells were washed and treated with a fluorophore for 24 h before fixing with methanol. Cells were then processed for immunofluorescence using tubulin antibody (red) and DAPI (blue).

Another data set concerns the target T1, tubulin tyrosine ligase (Homo sapiens, UniProt Q8NG68).
T1 construct: made in house; host or cells: Escherichia coli BL21
T1 sequence (Q8NG68 1-377): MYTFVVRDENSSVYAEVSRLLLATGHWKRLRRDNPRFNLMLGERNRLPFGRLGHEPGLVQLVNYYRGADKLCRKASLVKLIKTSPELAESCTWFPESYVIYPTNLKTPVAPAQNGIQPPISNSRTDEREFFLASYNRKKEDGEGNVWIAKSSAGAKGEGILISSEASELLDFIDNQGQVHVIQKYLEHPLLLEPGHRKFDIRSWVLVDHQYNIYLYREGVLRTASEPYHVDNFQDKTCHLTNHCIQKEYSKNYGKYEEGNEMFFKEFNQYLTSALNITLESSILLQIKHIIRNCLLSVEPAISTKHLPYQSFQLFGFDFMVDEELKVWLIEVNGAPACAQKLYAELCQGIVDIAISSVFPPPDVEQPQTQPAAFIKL
In words: Inhibition of [3H]-L-tyrosine incorporation into tubulin by TTL. The class given is biochemical. On the procedure: Tubulin Tyrosine Ligase. An initial supply of TTL was a gift of Prof. Dr. Jürgen Wehland and Dr. Christian Erck (Gesellschaft für Biotechnologische Forschung, Germany) and was stored at −80° C. Human TTL was prepared using expression vector p Receiver 05x (Genecopoeia, Md.), transformed into the Escherichia coli expression strain BL21.
[3H]-Tyr Incorporation Assay. TTL was thawed and diluted to 1 mg mL^−1 immediately before use. Detyrosinated tubulin (10 μM tubulin) in TTL buffer was combined with […] μL^−1 [3H-Tyr], 0.1 μg μL^−1 TTL, and various concentrations of inhibitor. The mixture was allowed to react for 30 min at 37° C. A 35 μL aliquot of the sample was placed onto DEAE chromatography paper (Whatman) and allowed to dry for 30 min. The protein was fixed using 200 μL of 10% acetic acid and allowed to dry for 10 min. Excess [3H-Tyr] was removed by 2 washes with 3.5 mL of 100% ethanol. The paper was allowed to dry for 30 min and then was combined with 10 mL of Scintiverse (BD) scintillation fluid. The amount of [3H]-tyrosine on each filter was determined using a β-counter.

For data set [4] the following is noted: from reference 34; cited from earlier work.
The test system of data set [5] is PC3 cells. The experiment in a line: SRB cytotoxicity of amino acid and fluorophore on live cells. The class given is cell-based. The note with it: 24 hour period. On the procedure:
PC3 cells were grown in medium supplemented with unnatural amino acid or vehicle for 24 h. Cells were then treated with fluorophore or vehicle for 24 h, following which an SRB assay was performed to assess the cytotoxicity of the molecules.
FIGS. 12A-12C show graphs of cytotoxicity of amino acid and fluorophore on live cells. The labeling technique is not detrimental to PC3 cell survival. PC3 cells were grown in medium supplemented with unnatural amino acid or vehicle (2% v/v, 10 mM phosphate buffer, pH 7) for 24 h. Cells were then treated with fluorophore or vehicle (1% v/v DMSO) for 24 h. Following which SRB assay was performed to assess the cytotoxicity of the molecules.

Setting [6] is: inhibition of tubulin tyrosine ligase, 10 μM detyrosinated tubulin, 30 min at 37° C.

Where two headings read alike, the source gives them in different places.

This is an account of results in patent publication US10071990B2, “Site-specific orthogonal labeling of the carboxy terminus of α-tubulin in live cells” (The Research Foundation for The State University of New York, priority 2013, dated 2018).

With `Cc1cc(=O)oc2cc(NN)ccc12` [coumarin hydrazine, 7-hydrazino-4-methyl coumarin], the “time to complete hydrazone formation” value in data set [1] is recorded as no more than 120 min. Also, the “second-order rate constant of hydrazone formation” value in data set [1] (no catalyst) came out at 0.883 M⁻¹ s⁻¹. Also, in data set [2], the Abs max is recorded as 360 nm, the Em max was determined as 432 nm and the “φ (quantum yield)” value was 0.046.
As to `NNC(=O)[C@@H](N)Cc1ccc(O)cc1` [Yzide, tyrosine hydrazide, reference compound], the “toxicity” value in the data set on cells (5 mM ligand, 96 h) is given as “No toxicity observed”. Also, the IC50 in the data set on cells was greater than 5000 µM. Besides, in the data set on PC3 cells [3], the “effect on microtubule network and cell morphology” value is “does not alter the microtubule network or cell morphology”.
By Ki is commonly meant the equilibrium dissociation constant of an inhibitor or competing ligand from its target. In turn, `N[C@@H](Cc1ccc(O)cc1)C(=O)O` [Tyrosine] had an inhibition constant Ki on tubulin tyrosine ligase (setting [6]) of 25 µM.
The term pKa denotes the pH at which an ionisable group is half protonated. For the molecule Phenyl hydrazide, in data set [4], the pKa is 3.1.
In turn, `[N-]=[N+]=Nc1cc(C[C@H](N)C(=O)O)ccc1O` [3-Azidotyrosine] registered a Ki at tubulin tyrosine ligase of 200 µM.
Consider `Cc1cc(=O)oc2cc(NN=Cc3ccccc3O)ccc12`, for which, in data set [2], the Abs max is given as 380 nm, the Em max was 459 nm and the “φ (quantum yield)” value amounted to 0.131.
`N[C@@H](Cc1ccc(O)c(C=O)c1)C(=O)O` [3-Formyltyrosine]: the IC50 with cells was greater than 25 µM. The Ki at tubulin tyrosine ligase was determined as 300 µM. In addition, the “effect on microtubule network and cell morphology” value with PC3 cells [3] was “does not alter the microtubule network or cell morphology”.
Turning to `Nc1ccc(C[C@H](N)C(=O)O)cc1` [4-Aminophenylalanine], at tubulin tyrosine ligase, the Ki was greater than 4000 µM.
In the case of `CC(=O)c1cc(C[C@H](N)C(=O)O)ccc1O` [AcY, 3-acetyltyrosine], the IC50 with cells is greater than 5000 µM. Also, the “cytotoxicity compared with 3fY” value in the data set with PC3 cells [5] is recorded as “less cytotoxic over 24 hour period than 3fY”. Moreover, the “effect on microtubule network and cell morphology” value in the data set on PC3 cells [3] was “does not alter the microtubule network or cell morphology”.
As for `NNc1ccccc1` [phenyl hydrazine], the pKa in data set [4] is recorded as 5.3.
Regarding `Nc1cc(C[C@H](N)C(=O)O)ccc1O` [3-Aminotyrosine], the affinity on tubulin tyrosine ligase (setting [6]) corresponds to a Ki of 200 µM.
